Legend:
MCF-7 cells [1] = assay: Cell cycle analysis by PI flow cytometry, MCF-7; settings: MCF-7, 10 µM, 24 h
Method: (§7) A comparison was made to the control (DMSO) and reference (gefitinib).
Cell cycle analysis and induction of apoptosis
Flow cytometry analysis of the cell cycle distribution
incubation period, the cells were collected, centrifuged, and ﬁxed with ice-cold ethanol (70%). The cells were subsequently treated with a buffer containing RNAse A and 0.1% Triton X-100, and stained
with PI. The cells were compared with the control, which was treated with DMSO. The DNA content
was measured by flow cytometry [50-52].

EGFR TK = molecular target: T1, EGFR TK (Homo sapiens, UniProt P00533); assay: EGFR TK inhibition assay (luminescent, Kinase-Glo MAX); assay type: biochemical
T1 construct: add 20 μl of diluted EGFR enzyme and incubate at 30°C for 40
Method: 2.2. Epidermal growth factor inhibition assay
In vitro luminescent EGFR tyrosine kinase assay, using Kinase-Glo® MAX as a detection reagent using DP‐Glo™ reagent that measures the adenosine diphosphate (ADP) formed from a kinase reaction, were performed; this luminescent signal positively correlates with ADP amount and kinase activity. In 17 μl of distilled water, 6 μl of Kinase assay buffer and 1 μl ATP and 1 μl PTK substrate were mixed (master mixture). In every well, mix 20 μl of the master mixture and 5 μl of Inhibitor solution (Test Inhibitor) for positive control, and use 5 μl of the same solution without inhibitor (Inhibitor buffer) as the blank solution; add 20 μl of diluted EGFR enzyme and incubate at 30°C for 40

[2] = tested on: MCF-7 cells (human breast adenocarcinoma); assay: MTT antiproliferative assay, MCF-7; assay type: cell-based; settings: Homo sapiens, MCF7, MTT assay, MCF-7, triplicate; read-out: In vitro cytotoxicity IC50, MCF-7
Method: (§1) The in vitro antiproliferative activity of all synthesised compounds was evaluated by an MTT assay according to the reported method[47]^,[48].
(§2) 2. Experimental procedure
(§3) 2.1. Antiproliferative screening
(§4) The in vitro antiproliferative activity of all synthesized compounds was evaluated by an MTT assay according to the reported method using five different human cancer cell lines, including […]
(§5) cervical carcinoma (HeLa), and human prostate cancer (PC-3). The cell lines were obtained from ATCC via a holding company for biological products and vaccines (VACSERA), Cairo, Egypt. The MTT assay is a colorimetric assay used for measuring the cellular growth based on the reduction of the yellow MTT to a purple formazan derivative by mitochondrial succinate dehydrogenase in viable cells. The color intensity of the formazan dye is correlated to the number of viable cells. The […]
(§6) IC50% values were calculated using dose response curves. The percentage of relative cell viability was calculated as (A570 of treated samples)/(A570 of untreated sample) × 100. The cytotoxic activity was defined as the concentration of the compound that caused 50% growth inhibition compared with the growth of an untreated cell. […]

[3] = tested on: HePG2 cells (hepatocellular carcinoma); assay: MTT antiproliferative assay, HePG2; assay type: cell-based, human; settings: Homo sapiens, HepG2, MTT assay, HePG2, triplicate; read-out: In vitro cytotoxicity IC50, HePG2
Method: as §1, §2, §3, §4, §5, §6

[4] = tested on: HCT-116 cells (colorectal carcinoma); assay: MTT antiproliferative assay, HCT-116; assay type: cell-based, human; settings: Homo sapiens, HCT-116, MTT assay, HCT-116, triplicate; read-out: In vitro cytotoxicity IC50, HCT-116
Method: as §1, §2, §3, §4, §5, §6

WI38 normal cell = assay: MTT cytotoxicity on normal fibroblast cells; assay type: cell-based; settings: Homo sapiens, WI-38; MTT assay, non tumour normal cell WI38
[5] = tested on: PC3 cells (human prostate carcinoma); assay: MTT antiproliferative assay, PC3; assay type: cell-based; settings: PC-3, PC3, triplicate, read-out: In vitro cytotoxicity IC50, PC3
Method: as §1, §2, §3, §4, §5, §6

[6] = tested on: human caspase-3 (active) in MCF-7 cells; assay: Caspase-3 ELISA in MCF-7 cells; assay type: cell-based
Method: Caspases are critical mediators of programmed cell death, that is, apoptosis. Caspase-3 is important in processes involving dissociation of the cell and the formation of the apoptotic element; therefore, it is regarded as one of the best biochemical hallmarks of apoptosis. […] The concentration of active caspase-3 was measured using the ELISA technique. In addition, the fluorescence density produced by the tested compounds is illustrated in Figure 4. […] The level of caspase-3 increased 5.7-fold compared to the control. Moreover, a considerable 7.3-fold increase in the caspase-3 level was detected following the treatment of the MCF-7 cells with compound 11. The bioluminescent intensities of caspase-3 indicated the apoptotic activity of compounds 3 and 11.
Afterward, measure luminescence using the
tested in triplicates.[36-38].
active caspase-3 [49]. […] The tested
Subsequently, 100 µL of an
incubated for 30 min at room temperature.
chromogen. […] The intensity of the resulting colored

[7] = tested on: HeLa cells (cervical carcinoma); assay: MTT antiproliferative assay, HeLa; assay type: cell-based, human; settings: Homo sapiens, triplicate, read-out: In vitro cytotoxicity IC50, HeLa
Method: as §1, §2, §3, §4, §5, §6

MCF-7 cells [8] = assay: Annexin V-FITC/PI apoptosis assay, MCF-7; settings: MCF-7, 10 µM, 24 h
Method: as §7
The cell line samples were analysed using FACSCalibur flow cytometer.
with PI. The cells were compared with the control, which was treated with DMSO.
Analysis of cellular apoptosis
concentration, respectively, and then incubated for 24 h. Following incubation, 1 –5 × 10^5 cells were
harvested and suspended in 500 µ L of the binding buffer, 5 µ L of annexin V-FITC, and 5 µL of PI.
annexin V-FITC conjugate is specially engineered to produce an enhanced fluorescence signal and
photostability. The annexin V-FITC kit included annexin V-FITC for detecting apoptosis as well as PI
for detecting necrosis. Thus, apoptosis and necrosis could be effectively differentiated. Detection and
analysis of the annexin V-FITC binding by flow cytometry was conducted using a FITC signal
detector (typically FL1). PI staining was evaluated by a phycoerythrin emission signal detector

T1 sequence (P00533 25-1210): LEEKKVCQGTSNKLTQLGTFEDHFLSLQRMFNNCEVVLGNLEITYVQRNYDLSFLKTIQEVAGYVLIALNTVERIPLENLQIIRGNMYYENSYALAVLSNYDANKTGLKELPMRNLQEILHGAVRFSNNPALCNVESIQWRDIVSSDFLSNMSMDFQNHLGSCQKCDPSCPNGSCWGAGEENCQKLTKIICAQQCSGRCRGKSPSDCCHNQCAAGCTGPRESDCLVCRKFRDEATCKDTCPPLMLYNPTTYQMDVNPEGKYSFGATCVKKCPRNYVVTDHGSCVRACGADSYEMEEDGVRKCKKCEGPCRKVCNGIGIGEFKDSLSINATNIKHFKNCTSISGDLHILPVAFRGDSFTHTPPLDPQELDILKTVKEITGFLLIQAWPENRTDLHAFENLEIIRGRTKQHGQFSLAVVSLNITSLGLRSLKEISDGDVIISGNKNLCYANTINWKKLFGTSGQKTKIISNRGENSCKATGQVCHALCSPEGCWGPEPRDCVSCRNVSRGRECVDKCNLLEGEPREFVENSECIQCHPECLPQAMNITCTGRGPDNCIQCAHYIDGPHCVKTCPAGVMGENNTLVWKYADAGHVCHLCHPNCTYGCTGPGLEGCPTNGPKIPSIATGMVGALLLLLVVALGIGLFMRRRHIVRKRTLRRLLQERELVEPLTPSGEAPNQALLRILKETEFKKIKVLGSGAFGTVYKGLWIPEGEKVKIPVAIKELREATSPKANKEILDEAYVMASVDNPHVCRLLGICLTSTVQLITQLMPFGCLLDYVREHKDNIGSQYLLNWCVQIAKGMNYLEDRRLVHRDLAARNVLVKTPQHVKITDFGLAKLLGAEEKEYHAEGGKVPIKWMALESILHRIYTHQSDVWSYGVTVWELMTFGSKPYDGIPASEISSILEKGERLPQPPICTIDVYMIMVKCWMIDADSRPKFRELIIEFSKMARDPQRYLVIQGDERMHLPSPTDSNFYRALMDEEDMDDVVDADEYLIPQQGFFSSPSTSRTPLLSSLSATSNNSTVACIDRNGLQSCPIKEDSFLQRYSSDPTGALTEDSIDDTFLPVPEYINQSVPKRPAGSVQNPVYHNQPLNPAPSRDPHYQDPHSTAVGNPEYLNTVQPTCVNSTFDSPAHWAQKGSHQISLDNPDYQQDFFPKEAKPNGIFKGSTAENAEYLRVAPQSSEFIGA

IC50 (EGFR TK): 0.81 µM
SMILES: N#Cc1c(-c2cc3ccccc3o2)ccnc1NCCc1ccccc1 [Compound 11, 4-(Benzofuran-2-yl)-2-(phenethylamino)nicotinonitrile]
%Pre/G1 (MCF-7 cells [1]; control 0.55, '% Apoptosis' in Figure 6A): 16.25% | %G2/M (MCF-7 cells [1]; control 3.66): 15.28% | %S (MCF-7 cells [1]; control 27.37): 21.36% | %G0/G1 (MCF-7 cells [1]; control 66.42): 47.11% | IC50 [2]: 14.6 ± 1.3 µM | IC50 [3]: 20.4 ± 1.6 µM | IC50 [4]: 46.1 ± 2.7 µM | IC50 (WI38 normal cell): 94.5 ± 5.13 µM | IC50 [5]: 18.8 ± 1.5 µM | Caspase-3 Conc. ([6]; ELISA, control 60.7): 440.08 pg/mL | Caspase-3 level, Fold ([6]; compared to the control): 7.3 fold | IC50 [7]: 32.1 ± 1.9 µM | Necrosis (MCF-7 cells [8]; control 0.15): 1.23% | Early apoptosis (MCF-7 cells [8]; control 0.16): 6.89% | Late apoptosis (MCF-7 cells [8]; control 0.24): 8.13% | Apoptosis, Total (MCF-7 cells [8]; control 0.55): 16.25%
